Data from ChEMBL document CHEMBL5356986, “Research status of indole-modified natural products” (RSC Med Chem, 2023).
pIC50: −log10 of the molar value. Values after ≈ are worked out from the molar mass of the structure shown. Each block holds one compound with its values, some of them ahead of it.

Tests used:
[1] = Cytotoxicity against mouse RAW264.7 cells assessed as reduction in cell viability incubated for 48 hrs by MTT assay; assay type: toxicity, cell-based
Alpha glucosidase [2] = biological target: T1, Alpha glucosidase (Homo sapiens, UniProt O43451+P10253+P14410+Q2M2H8); test: Inhibition of Alpha-glucosidase (unknown origin) using p-nitrophenyl glucopyranoside as substrate by UV based microplate reader analysis; assay type: protein assay
Candida albicans = test: Antibacterial activity against Candida albicans assessed as reduction in bacterial growth; assay type: functional
Staphylococcus aureus [3] = test: Antibacterial activity against Staphylococcus aureus assessed as reduction in microbial growth; assay type: functional
Klebsiella pneumoniae = test: Antibacterial activity against Klebsiella pneumoniae assessed as reduction in bacterial growth by broth microdilution method; assay type: functional
RAW264.7 = test: Anti-inflammatory activity in mouse RAW264.7 cells assessed as inhibition of LPS-induced NO production; assay type: functional, cell-based
Bacillus subtilis = test: Antibacterial activity against Bacillus subtilis assessed as reduction in microbial growth; assay type: functional
Fusarium oxysporum = test: Antifungal activity against Fusarium oxysporum assessed as inhibition of fungal growth; assay type: functional
Aspergillus niger = test: […] against Aspergillus niger assessed as […] incubated for 24 hrs by agar disc diffusion assay; assay type: functional
Escherichia coli [4] = test: Antibacterial activity against Escherichia coli assessed as reduction in bacterial cell viability; assay type: functional
[5] = biological target: Tyrosine-protein phosphatase non-receptor type 1 (Homo sapiens, UniProt P18031); test: Inhibition of Protein tyrosine phosphatase 1B (unknown origin)
HeLa [6] = test: Cytotoxicity against human HeLa cells assessed as reduction in cell viability incubated for 48 hrs by MTT assay; assay type: functional, cell-based
Caco-2 = test: Antiproliferative activity against human Caco-2 cells incubated for 96 hrs by MTT assay; assay type: functional, cell-based; details: Caco-2, 96 h
PC-3 = test: Antiproliferative activity against human PC-3 cells assessed as reduction in cell growth measured after 24 hrs by MTT assay; assay type: functional, cell-based; details: PC-3, 24 h
Alpha glucosidase [7] = biological target: T1, Alpha glucosidase; test: Inhibition of Alpha-glucosidase (unknown origin) spectrophotometric analysis; assay type: protein assay
SGC-7901 = test: Cytotoxicity against human SGC-7901 cells assessed as reduction in cell viability measured after 48 hrs by MTT colorimetric assay; assay type: functional, cell-based; details: SGC-7901, 48 h
HepG2 [8] = test: Cytotoxicity against human HepG2 cells assessed as reduction in cell viability measured after 48 hrs by MTT colorimetric based assay; assay type: functional; details: HepG2, 48 h
HepG2 [9] = test: Cytotoxicity against human HepG2 cells assessed as cell growth inhibition; assay type: functional, cell-based
[10] = test system: Trichophyton mentagrophytes; test: Antifungal activity against Trichophyton mentagrophytes assessed as inhibition of microbial growth; assay type: functional
Nannizzia gypsea = test: Antifungal activity against Microsporum gypseum assessed as fungal growth inhibition; assay type: functional
Arthrodermataceae = test: Antibacterial activity against Arthrodermataceae; assay type: functional
HepG2 [11] = test: Cytotoxicity against human HepG2 cells by MTT assay; assay type: functional, cell-based
Acinetobacter baumannii = test: Antibacterial activity against Acinetobacter baumannii assessed as reduction in bacterial growth by broth microdilution method; assay type: functional
Staphylococcus aureus [12] = test: Antibacterial activity against Staphylococcus aureus […] assessed as reduction in microbial growth; assay type: functional
Staphylococcus aureus [13] = test: Antibacterial activity against methicillin-resistant Staphylococcus aureus assessed as reduction in microbial growth; assay type: functional
Escherichia coli [14] = test: Antibacterial activity against Escherichia coli assessed as reduction in bacterial growth by broth microdilution method; assay type: functional
Enterococcus faecalis = test: Antibacterial activity against Enterococcus faecalis assessed as reduction in bacterial growth; assay type: functional
Staphylococcus aureus [15] = test: Antibacterial activity against Staphylococcus aureus ATCC 29213 assessed as reduction in microbial growth; assay type: functional
HeLa [16] = test: Cytotoxicity against human HeLa cells assessed as cell growth inhibition incubated for 24 hrs by MTT assay; assay type: functional, cell-based
MCF7 [17] = test: Antiproliferative activity against human MCF7 cells assessed as inhibition of cell growth by CCK8 assay; assay type: functional, cell-based
HepG2 [18] = test: Antiproliferative activity against human HepG2 cells assessed as reduction in cell viability incubated for 48 hrs by MTT assay; assay type: functional, cell-based; details: HepG2, 48 h
Toxoplasma gondii = test: Antiparasitic activity against Toxoplasma gondii tachyzoites infected in human HeLa cells; assay type: functional, organism-based
MDA-MB-453 = test: Antiproliferative activity against human MDA-MB-453 cells assessed as inhibition of cell growth incubated for 48 hrs by MTT assay; assay type: functional, cell-based; details: MDA-MB-453, 48 h
MDA-MB-231 = test: Antiproliferative activity against human MDA-MB-231 cells assessed as reduction in cell viability incubated for 48 hrs by MTT assay; assay type: functional, cell-based; details: MDA-MB-231, 48 h
MCF7 [19] = test: Cytotoxicity against human MCF7 cells assessed as reduction in cell viability by MTS assay; assay type: functional, cell-based
Bel-7402 = test: Cytotoxicity against human Bel-7402 cells assessed as reduction in cell viability; assay type: functional, cell-based
HCT-116 = test: Cytotoxicity against human HCT-116 cells assessed as reduction in cell viability by MTS assay; assay type: functional, cell-based
[20] = test system: Trichophyton mentagrophytes; test: Antifungal activity against Trichophyton mentagrophytes assessed as inhibition of fungal growth incubated for 48 hrs by serial plate dilution method; assay type: functional
HOP-92 = test: Growth inhibition against human HOP-92 cells incubated for 48 hrs by sulforhodamine B assay; assay type: functional

Sequence of Tyrosine-protein phosphatase non-receptor type 1 (P18031 whole entry): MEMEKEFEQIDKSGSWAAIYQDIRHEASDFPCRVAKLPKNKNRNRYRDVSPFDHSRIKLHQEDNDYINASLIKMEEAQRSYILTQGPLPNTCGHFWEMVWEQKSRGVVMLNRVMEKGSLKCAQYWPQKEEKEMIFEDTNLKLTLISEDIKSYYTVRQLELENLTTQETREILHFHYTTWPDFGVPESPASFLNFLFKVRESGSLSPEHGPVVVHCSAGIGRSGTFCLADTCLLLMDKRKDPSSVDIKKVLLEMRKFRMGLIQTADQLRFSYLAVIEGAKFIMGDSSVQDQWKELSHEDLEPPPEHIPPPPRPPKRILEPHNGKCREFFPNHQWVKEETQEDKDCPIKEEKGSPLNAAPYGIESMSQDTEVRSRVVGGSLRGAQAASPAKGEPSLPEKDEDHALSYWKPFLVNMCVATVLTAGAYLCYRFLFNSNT

Compound: C=C(C)[C@@H]1CC[C@]2(C)CC[C@]3(C)[C@H](CC[C@@H]4[C@@]5(C)Cc6c([nH]c7cc(I)ccc67)C(C)(C)[C@@H]5CC[C@]43C)[C@@H]12
IC50 at 48 h [1]: 22.6 µM

IC50 (Alpha glucosidase [2]): 115.2 µM
Compound: C=C(C)[C@@H](C)CC[C@@H](C)C1CC[C@@]2(C)[C@@H]3CC[C@H]4[C@H](C)c5[nH]c6ccccc6c5C[C@@]45C[C@@]35CC[C@]12C (stereo partly specified)

MIC (Candida albicans): 20 µg/mL (≈ 50.2 µM)
MIC (Staphylococcus aureus [3]): 16 µg/mL
MIC (Klebsiella pneumoniae): 22 µg/mL (≈ 55.2 µM)
IC50 (RAW264.7): 26 µg/mL (≈ 65.3 µM)
MIC (Bacillus subtilis): 16 µg/mL
MIC (Fusarium oxysporum): 20 µg/mL (≈ 50.2 µM)
MIC (Aspergillus niger): 21 µg/mL (≈ 52.7 µM)
MIC (Escherichia coli [4]): 15 µg/mL (≈ 37.6 µM)
Compound: NC(Cc1c[nH]c2ccccc12)C(=O)Oc1ccc2c(=O)c3ccccc3oc2c1 (stereo unspecified)

IC50 (Alpha glucosidase [2]): 603.8 µM
Compound: C=C(C)[C@@H](C)CC[C@@H](C)[C@H]1CC[C@@]2(C)[C@@H]3CC[C@H]4[C@H](C)C(=O)CC[C@@]45C[C@@]35CC[C@]12C

pIC50 [5]: 5.37
Compound: CC1(C)c2[nH]c3ccc(C(F)(F)F)cc3c2C[C@]2(C)[C@H]3C(=O)C=C4[C@@H]5C[C@@](C)(C(=O)O)CC[C@]5(C)CC[C@@]4(C)[C@]3(C)CC[C@@H]12

pIC50 (Caco-2): 4.32
pIC50 (PC-3): 4.91
Compound: COc1cc(/C=C/C(=O)CC(=O)/C=C/c2ccc(O)c(OC)c2)ccc1O [CURCUMIN]
pIC50 (HeLa [6]): 4.59

IC50 (Alpha glucosidase [7]): 85 µM
Compound: COc1ccc2c(CSC(=S)NCCc3c[nH]c4ccccc34)cc(=O)oc2c1

Compound: CC(C)COC(=O)[C@]12CC[C@@H](C)[C@H](C)[C@H]1C1=CC(=O)[C@@H]3[C@@]4(C)Cc5c([nH]c6ccc(Cl)cc56)C(C)(C)[C@@H]4CC[C@@]3(C)[C@]1(C)CC2
pIC50 (SGC-7901): 5.51
pIC50 (HepG2 [8]): 5.51
pIC50 (HepG2 [9]): 5.51

MIC [10]: 8 µg/mL
MIC (Nannizzia gypsea): 4 µg/mL (≈ 14.4 µM)
MIC (Arthrodermataceae): 8 µg/mL (≈ 28.8 µM)
Compound: COc1ccc(/C=C/C(=O)c2c[nH]c3ccccc23)cc1

Compound: CC(=O)Oc1ccc(C(=O)/C=C/c2ccc3c(ccn3C)c2)c2c1C=CC(C)(C)O2
pIC50 (HepG2 [11]): 6.66

Compound: CCn1cc(C(=O)O)c(=O)c2cc(F)c(N3CCNCC3)cc21 [NORFLOXACIN]
MIC (Acinetobacter baumannii): 2 µg/mL (≈ 6.26 µM)
MIC (Staphylococcus aureus [12]): 4 µg/mL
MIC (Staphylococcus aureus [13]): 4 µg/mL
MIC (Escherichia coli [14]): 2 µg/mL (≈ 6.26 µM)
MIC (Enterococcus faecalis): 4 µg/mL (≈ 12.5 µM)
MIC (Staphylococcus aureus [15]): 2 µg/mL

Compound: CC(C)[C@@H](C)/C=C/[C@@H](C)[C@H]1CC[C@@H]2[C@]1(C)CC[C@H]1[C@]23C=C[C@]2(C[C@@H](O)CC[C@]12C)OO3 [ERGOSTEROL PEROXIDE]
pIC50 (HeLa [16]): 4.71
pIC50 (MCF7 [17]): 4.74
pIC50 (HepG2 [18]): 4.63

Compound: SPIRAMYCIN
pIC50 (Toxoplasma gondii): 3.58

pIC50 (MDA-MB-453): 8.00
pIC50 (MDA-MB-231): 8.32
pIC50 (MCF7 [17]): 5.97
Compound: C[C@]12CC[C@H]3[C@@H](CC=C4C[C@@H](O)CC[C@@H]43)[C@@H]1CC/C2=N\N=C\c1c[nH]c2ccccc12

Compound: C=C1C(=O)[C@]23[C@H](OC(=O)c4cc5cc(OC)ccc5[nH]4)[C@H]1CC[C@H]2[C@@]12COC3(O)[C@@H](O)[C@@H]1C(C)(C)CC[C@@H]2O (single isomer, unassigned)
pIC50 (MCF7 [19]): 6.41
pIC50 (Bel-7402): 6.08
pIC50 (HCT-116): 6.09

MIC [20]: 2 µg/mL (≈ 5 µM)
MIC [10]: 4 µg/mL
MIC (Nannizzia gypsea): 0.25 µg/mL (≈ 0.625 µM)
Compound: CCOc1c(Br)cc(/C=C/C(=O)c2c[nH]c3ccccc23)cc1OC

Compound: Cc1cc(=O)oc2c(C)c(O)c(-c3cc4ccc(F)cc4[nH]3)cc12
GI50 (HOP-92): 0.95 µM

pIC50 (MDA-MB-453): 7.97
pIC50 (MDA-MB-231): 7.57
pIC50 (MCF7 [17]): 4.94
Compound: C[C@]12CC[C@H](OC(=O)[C@H](N)c3c[nH]c4ccccc34)C[C@H]1CC[C@@H]1[C@@H]2[C@H](N)C(=O)[C@]2(C)[C@@H](c3ccc(=O)oc3)CC[C@]12O
